Experiment: mn = molality of the nth substance listed, in mol/kg
Conditions: 101 kPa, Liquid; for mass density: Pycnometric method; for viscosity: Capillary tube (Ostwald / Ubbelohde) method; for speed of sound: Linear variable-path acoustic interferometer

CC(=O)[O-].CC(=O)[O-].[Mg+2] [magnesium acetate] + O
Conditions | mass density [kg/m3] | speed of sound [m/s] | viscosity [mPa·s]
305.5 K, m1 = 1.866 | 1115.1 | – | –
305.65 K, m1 = 0.646 | 1041.8 | – | –
305.85 K, m1 = 1.354 | 1086.1 | – | –
305.85 K, m1 = 5.732 | 1263.4 | – | –
305.95 K, m1 = 0.0831 | 1001 | – | –
305.95 K, m1 = 0.8751 | 1056.2 | – | –
306.3 K, m1 = 0.4247 | 1026.1 | – | –
306.4 K, m1 = 3.043 | 1171.3 | – | –
306.4 K, m1 = 3.437 | 1191.7 | – | –
306.55 K, m1 = 1.608 | 1101.3 | – | –
306.65 K, m1 = 5.165 | 1247 | – | –
306.75 K, m1 = 3.819 | 1203.4 | – | –
306.9 K, m1 = 0.1671 | 1007 | – | –
307.25 K, m1 = 2.134 | 1128.6 | – | –
307.5 K, m1 = 2.622 | 1152.1 | – | –
307.6 K, m1 = 4.547 | 1227.3 | – | –
307.65 K, m1 = 0.0414 | 997.17 | – | –
307.75 K, m1 = 1.327 | 1084 | – | –
308.05 K, m1 = 1.866 | 1114 | – | –
308.1 K, m1 = 1.106 | 1071.4 | – | –
308.15 K, m1 = 0.0414 | – | 1523.3 | 0.7529
308.15 K, m1 = 0.0831 | – | 1530.3 | 0.7775
308.15 K, m1 = 0.1671 | – | 1541.4 | 0.8306
308.15 K, m1 = 0.4247 | – | 1575.1 | 1.021
308.15 K, m1 = 0.646 | – | 1601.9 | 1.231
308.15 K, m1 = 0.8751 | – | 1631.2 | 1.45
308.15 K, m1 = 1.106 | – | 1655.9 | 1.774
308.15 K, m1 = 1.354 | – | 1677.9 | 2.139
308.15 K, m1 = 1.608 | – | 1705 | 2.139
308.15 K, m1 = 1.866 | – | 1728.9 | 3.181
308.15 K, m1 = 2.134 | – | 1754.2 | 3.943
308.15 K, m1 = 2.411 | – | 1782.5 | 5.121
308.15 K, m1 = 2.622 | – | 1791.3 | 5.819
308.15 K, m1 = 3.043 | – | 1819.5 | 8.11
308.15 K, m1 = 3.437 | – | 1847.8 | 12.3
308.15 K, m1 = 3.819 | – | 1862.6 | –
308.15 K, m1 = 4.001 | – | – | 19.17
308.15 K, m1 = 4.547 | – | 1888.8 | –
308.15 K, m1 = 4.563 | – | – | 31.43
308.15 K, m1 = 4.929 | – | – | 39.25
308.15 K, m1 = 5.165 | – | 1908 | –
308.15 K, m1 = 5.41 | – | – | 72.56
308.15 K, m1 = 5.732 | – | 1914.4 | 96.97
308.15 K, m1 = 6.187 | – | – | 175.6
308.45 K, m1 = 6.187 | 1274.5 | – | –
308.65 K, m1 = 0.646 | 1040.7 | – | –
308.65 K, m1 = 1.354 | 1085 | – | –
308.7 K, m1 = 3.437 | 1190.5 | – | –
308.75 K, m1 = 0.8751 | 1055.2 | – | –
308.75 K, m1 = 3.043 | 1170.1 | – | –
308.85 K, m1 = 5.165 | 1245.6 | – | –
308.9 K, m1 = 0.0831 | 1000 | – | –
308.95 K, m1 = 3.819 | 1202.2 | – | –
309.1 K, m1 = 2.411 | 1142.9 | – | –
309.25 K, m1 = 0.4247 | 1025.2 | – | –
309.6 K, m1 = 1.608 | 1100.1 | – | –
309.7 K, m1 = 0.1671 | 1006 | – | –
309.7 K, m1 = 4.547 | 1225.9 | – | –
309.7 K, m1 = 5.732 | 1260.8 | – | –
309.8 K, m1 = 2.134 | 1127.4 | – | –
309.95 K, m1 = 2.622 | 1151 | – | –
310.45 K, m1 = 6.187 | 1273.1 | – | –
310.6 K, m1 = 1.327 | 1082.8 | – | –
310.7 K, m1 = 1.106 | 1070.3 | – | –
310.8 K, m1 = 6.545 | 1280.7 | – | –
310.85 K, m1 = 0.0414 | 996.1 | – | –
310.85 K, m1 = 3.437 | 1189.2 | – | –
310.95 K, m1 = 5.165 | 1244.3 | – | –
311.2 K, m1 = 3.819 | 1201 | – | –
311.25 K, m1 = 3.043 | 1168.8 | – | –
311.35 K, m1 = 0.646 | 1039.6 | – | –
311.4 K, m1 = 1.354 | 1083.9 | – | –
311.65 K, m1 = 0.8751 | 1054 | – | –
311.85 K, m1 = 0.0831 | 998.98 | – | –
311.9 K, m1 = 4.547 | 1224.6 | – | –
312.1 K, m1 = 0.4247 | 1024 | – | –
312.15 K, m1 = 1.608 | 1099 | – | –
312.3 K, m1 = 6.187 | 1271.8 | – | –
312.45 K, m1 = 2.134 | 1126.3 | – | –
312.55 K, m1 = 0.1671 | 1004.8 | – | –
312.55 K, m1 = 2.622 | 1149.7 | – | –
312.7 K, m1 = 6.545 | 1279.4 | – | –
313.15 K, m1 = 0.0414 | – | 1532.2 | 0.6835
313.15 K, m1 = 0.0831 | – | 1539 | 0.7037
313.15 K, m1 = 0.1671 | – | 1547.7 | 0.7523
313.15 K, m1 = 0.4247 | – | 1582.3 | 0.9195
313.15 K, m1 = 0.646 | – | 1607.4 | 1.105
313.15 K, m1 = 0.8751 | – | 1635.6 | 1.294
313.15 K, m1 = 1.106 | – | 1659.1 | 1.573
313.15 K, m1 = 1.354 | – | 1679.3 | 1.887
313.15 K, m1 = 1.608 | – | 1704.6 | 1.887
313.15 K, m1 = 1.866 | – | 1728.4 | 2.771
313.15 K, m1 = 2.134 | – | 1752.5 | 3.404
313.15 K, m1 = 2.411 | – | 1778.6 | 4.373
313.15 K, m1 = 2.622 | – | 1787.1 | 4.948
313.15 K, m1 = 3.043 | – | 1815 | 6.797
313.15 K, m1 = 3.437 | 1188 | 1840.3 | 10.13
313.15 K, m1 = 3.819 | – | 1854.1 | –
313.15 K, m1 = 4.001 | – | – | 15.43
313.15 K, m1 = 4.547 | – | 1878.9 | –
313.15 K, m1 = 4.563 | – | – | 24.53
313.15 K, m1 = 4.929 | – | – | 30.41
313.15 K, m1 = 5.165 | – | 1896 | –
313.15 K, m1 = 5.41 | – | – | 54.06
313.15 K, m1 = 5.732 | – | – | 71.46
313.15 K, m1 = 6.187 | – | – | 120
313.35 K, m1 = 0.0414 | 995.14 | – | –
313.45 K, m1 = 1.327 | 1081.7 | – | –
313.45 K, m1 = 1.866 | 1111.6 | – | –
313.45 K, m1 = 3.819 | 1199.8 | – | –
313.5 K, m1 = 1.106 | 1069.1 | – | –
313.5 K, m1 = 3.043 | 1167.6 | – | –
313.55 K, m1 = 5.732 | 1258.3 | – | –
314 K, m1 = 4.547 | 1223.4 | – | –
314.05 K, m1 = 1.354 | 1082.8 | – | –
314.1 K, m1 = 2.411 | 1140.6 | – | –
314.25 K, m1 = 0.646 | 1038.6 | – | –
314.25 K, m1 = 6.187 | 1270.4 | – | –
314.3 K, m1 = 0.8751 | 1052.9 | – | –
314.35 K, m1 = 0.0831 | 997.91 | – | –
314.5 K, m1 = 6.545 | 1278.1 | – | –
314.65 K, m1 = 0.4247 | 1022.9 | – | –
